Data on one compound can be found in ChEMBL document CHEMBL1130734, “Design and synthesis of a biotinylated dopamine transporter ligand for the purification and labeling of dopaminergic neurons” (Bioorg Med Chem Lett, 1998).

The assay concerns the target Sodium-dependent noradrenaline transporter (Homo sapiens, UniProt P23975). In words: Compound was tested for its ability to inhibit the uptake of Norepinephrine in Norepinephrine transporter system. Type of assay: functional.

Sodium-dependent noradrenaline transporter, sequence (P23975 whole entry): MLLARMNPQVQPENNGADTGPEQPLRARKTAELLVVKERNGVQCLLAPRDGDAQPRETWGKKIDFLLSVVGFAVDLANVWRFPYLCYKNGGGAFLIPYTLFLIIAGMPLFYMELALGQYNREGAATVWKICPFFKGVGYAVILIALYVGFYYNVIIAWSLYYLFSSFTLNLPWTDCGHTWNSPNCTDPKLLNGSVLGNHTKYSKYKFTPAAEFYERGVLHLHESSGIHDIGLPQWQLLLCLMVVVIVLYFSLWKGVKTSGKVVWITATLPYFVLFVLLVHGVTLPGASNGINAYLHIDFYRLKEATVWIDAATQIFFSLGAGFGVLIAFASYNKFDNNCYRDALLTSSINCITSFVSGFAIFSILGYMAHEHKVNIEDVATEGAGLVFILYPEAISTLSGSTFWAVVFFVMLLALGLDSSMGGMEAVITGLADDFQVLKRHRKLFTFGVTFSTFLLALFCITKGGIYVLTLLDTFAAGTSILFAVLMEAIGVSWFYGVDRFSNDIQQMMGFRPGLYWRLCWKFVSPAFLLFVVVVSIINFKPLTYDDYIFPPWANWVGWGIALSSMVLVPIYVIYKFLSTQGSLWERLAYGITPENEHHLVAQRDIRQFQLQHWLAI

For orientation: IC50 means the concentration that inhibits the measured activity by half. Higher therefore signals weaker potency. Compound `c1ccc(CCCN2CCN(CCOC(c3ccccc3)c3ccccc3)CC2)cc1` displayed a 50% inhibitory concentration (IC50) of 1260 nM.
